In US20090099167A1, “Organic compounds” (Novartis Institutes for Biomedical Research, priority 2004, published 2009):
Like-named read-outs stand apart in the source and are kept apart here.

Experiments:
[1] = molecular target: HER-1 (Homo sapiens, UniProt P00533); assay: HER-1 kinase inhibition; format: biochemical; conditions: Table 5; read-out: HER-1, IC50 class
[2] = molecular target: Cdk1/cycB (UniProt P06493); assay: Cdk1/cycB kinase assay, histone H1 substrate; format: biochemical, starfish
Description: The inhibition of Cdk1 can be determined as follows: Cdk1/cycB: Cdk1/cycB are obtained from ProQinase, Freiburg, Germany. Starfish oocytes are induced to enter M phase of the cell cycle with 10 μM 1-methyladenine and frozen in liquid nitrogen and stored at −80° C. […] Briefly, the supernatant from oocytes is equilibrated for 30 min at 4° C. under constant rotation with the p9^CKShs-sepharose beads. The beads are extensively washed and active cdk1/cycB kinase is eluted with purified p9^CKShs (3 mg/ml). […] The assay is carried with slight modifications in 96-well plates at ambient temperature for 20 min. […] The reaction is terminated by addition of 25 μl 0.05 M EDTA pH 7.0. An aliquot of 40 μl is spotted with a multichannel dispenser on Immobilon P membranes mounted in a Millipore Microtiter filter manifold connected to a low vacuum source. After elimination of liquid, the membrane is transferred to a sequence of 4 washing baths containing 0.5% H3PO4 and one with EtOH (shaking incubation for 10 min each), dried, mounted onto a Hewlett Packard TopCount manifold added 10 μl Microscint® and counted. […] Cells were seeded at 2.5×10^7 cells per 150 mm dish and allowed to attach to a 150 mm dish for 1 hr at RT. Media (SF900II containing 10% FBS) is aspirated and recombinant baculovirus; GST-C-Raf-1, v-Ras and v-Src are added at MOI of 3.0, 2.5 and 2.5 receptively in a total volume of 4-5 mL. Cells are incubated for 1 hr at RT and then 15 mL of medium is added. Infected cells are incubated for 48-72 hr at 27° C. Infected Sf21 cells are scraped and collected into a 50 mL tube and centrifuged for 10 min at 4° C. at 1100 g in a Sorvall centrifuge. The cell pellet is washed once with ice cold PBS and lysed with 0.6 mL lysis buffer per 2.5×10^7 cells. Complete lysis of cells is achieved after 10 min on ice with occasional pipetting. […] GST-c-Raf-1 was allowed to bind to the beads at 4° C. for 1 hr with rocking. Bound GST-c-Raf-1 with beads was transferred to a column. The column is washed once with lysis buffer and twice with ice cold Tris buffered saline. Ice cold elution buffer is added and column flow is stopped to allow the free glutathione to disrupt the interaction of GST-c-Raf-1 with glutathione sepharose beads. Fractions (1 mL) are collected into pre-chilled tubes. Each tube contains 10% glycerol (final concentration) to maintain kinase activity during freeze thaw cycles. Purified fractions of GST-c-Raf-1 kinase protein are stored at −80° C.

[3] = molecular target: T1, Tek (Homo sapiens, UniProt Q02763); assay: Tek kinase inhibition, GST-fused kinase domain; format: biochemical; conditions: Table 5; read-out: Tek, IC50 class
T1 construct: N-terminally GST-fused (pAcG1, Pharmingen) KDR, Flt-1, Flk-1, Tek and PDGFR-β kinase domains are obtained from ProQinase, Freiburg, Germany; host or cells: Sf9 or High Five (baculovirus)
Description: The inhibition of IGF-1R and Ins-R can be determined as follows: The baculovirus donor vector pfbgx3IGFIRcd is used to generate a recombinant baculovirus that expresses the amino acid region 950-1337 of the mature peptide cytoplasmic domain of the human IGF-IR. To generate the cDNA fragment encoding the amino acid region 919-1343 of the intra-cytoplasmic kinase domain of the human insulin receptor, pC5hInsR is used. The fragments of the human IGF-IR and Ins-R are cloned, expressed and small-scale purified as a factor Xa-cleavable glutathione-S-transferase (GST)-fusion protein using the Bac-to-Bac™ system (GIBCO BRL) of recombinant baculovirus generation. Virus containing media is collected from the transfected cell culture and used for infection to increase its titer. Virus containing media obtained after two rounds of infection is used for large-scale protein expression. Cell extracts are prepared and loaded onto a glutathione-Sepharose (Pharmacia) column. After washing, the GST-tagged proteins are then eluted with a glutathione-containing buffer. Purified protein is stored at −70° C. in elution buffer. Tyrosine protein kinase assays with purified GST-IGF-1R and GST-ins-R are carried in a final volume of 30 μl containing 20 mM Tris-HCl, pH 7.6, 10 mM MgCl2, 0.01 mM Na3VO4, 1% DMSO, 1 mM DTT, 3 μg/ml poly(Glu,Tyr) 4:1 and 10 μM ATP (γ-[^33P]-ATP 0.1 μCi). The assay is performed in 96-well plates at ambient temperature for 20 min and terminated by addition of 25 μl 0.05 M EDTA pH 7.0. An aliquot of 40 μl is spotted with a multichannel dispenser on Whatman P81 membranes mounted in a Millipore Microtiter filter manifold connected to a low vacuum source. After elimination of liquid, the membrane is transferred to a sequence of 4 washing baths containing 0.5% H3PO4 and one with EtOH (shaking incubation for 10 min each), dried, mounted onto a Hewlett Packard TopCount manifold added 10 μl Microscint® and counted. Compounds of formula (I) show up to 90% inhibition of Ins-R at 10,000 nM, preferably between 60-90% inhibition. The inhibition of Tek can be determined as follows: The procedure of the expression, purification and assay these kinases has been described. Fabbro et al., Pharmacol. Ther. 82(2-3) 293-301 (1999). In brief, the glutathione S-transferase (GST) gene from the pAcG1 vector (Pharmingen) is excised with EcoRV and EcoRI and inserted into the cloning site of the Fast-Bac baculoviral vector (GIBCO) creating a 5530 bp vector with N-terminal cloning sites derived from the pAcG1 fusion vector (FBG0). The C-terminal cloning site may be any cloning site (from the Fast-Bac vector) downstream of the N-terminal cloning site used. N-terminally GST-fused (pAcG1, Pharmingen) KDR, Flt-1, Flk-1, Tek and PDGFR-β kinase domains are obtained from ProQinase, Freiburg, Germany. Tek is recloned into the FBG1 vector by EcoRI excision and ligation into EcoRI digested FBG1 (FBG1-Tek). The coding sequences for the whole cytoplasmic domain of c-Kit (aa 544-976) and c-Fms (aa 538-972) are amplified by PCR from human uterus and from human bone marrow cDNA libraries (Clontech), respectively. The amplified DNA fragments are fused to GST by cloning them into FBG1 as BamHI-EcoRI insertions, to yield FBG1-c-Kit and FBG1-c-Fms. Tek is recloned into the FBG0 transfer vector by EcoRI excision and ligation into EcoRI digested FBG0 (FBG-Tie2/Tek). FGFR-1 and c-met kinase domains are obtained by PCR from human A431 cells. N-terminal primers contain an overhanging EcoRI site, while C-terminal primers contain a XhoI site to aid cloning into the transfer vectors. After digestion of both the PCR fragments and FBG0 the cleavage products are gel-purified and ligated together to form the kinase constructs (FBG-Met, FBG-FGFR-1).
Viruses for each of the kinases are made according to the protocol supplied by GIBCO. […]

[4] = Table 5, read-out: CDK1/B, IC50 class
[5] = Table 4, read-out: Cdk1, activity (IC50 for kinase inhibition)

T1 sequence (Q02763 824-1096 limits assumed, species assumed): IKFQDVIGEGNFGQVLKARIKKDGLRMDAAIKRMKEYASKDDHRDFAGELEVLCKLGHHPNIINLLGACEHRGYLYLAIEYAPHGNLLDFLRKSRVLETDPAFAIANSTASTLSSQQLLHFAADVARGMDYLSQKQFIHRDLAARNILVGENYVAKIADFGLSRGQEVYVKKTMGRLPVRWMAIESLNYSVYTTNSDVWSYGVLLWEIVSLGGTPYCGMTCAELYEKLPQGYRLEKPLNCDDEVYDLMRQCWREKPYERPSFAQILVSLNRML
HER-1, sequence (P00533 25-1210, species assumed): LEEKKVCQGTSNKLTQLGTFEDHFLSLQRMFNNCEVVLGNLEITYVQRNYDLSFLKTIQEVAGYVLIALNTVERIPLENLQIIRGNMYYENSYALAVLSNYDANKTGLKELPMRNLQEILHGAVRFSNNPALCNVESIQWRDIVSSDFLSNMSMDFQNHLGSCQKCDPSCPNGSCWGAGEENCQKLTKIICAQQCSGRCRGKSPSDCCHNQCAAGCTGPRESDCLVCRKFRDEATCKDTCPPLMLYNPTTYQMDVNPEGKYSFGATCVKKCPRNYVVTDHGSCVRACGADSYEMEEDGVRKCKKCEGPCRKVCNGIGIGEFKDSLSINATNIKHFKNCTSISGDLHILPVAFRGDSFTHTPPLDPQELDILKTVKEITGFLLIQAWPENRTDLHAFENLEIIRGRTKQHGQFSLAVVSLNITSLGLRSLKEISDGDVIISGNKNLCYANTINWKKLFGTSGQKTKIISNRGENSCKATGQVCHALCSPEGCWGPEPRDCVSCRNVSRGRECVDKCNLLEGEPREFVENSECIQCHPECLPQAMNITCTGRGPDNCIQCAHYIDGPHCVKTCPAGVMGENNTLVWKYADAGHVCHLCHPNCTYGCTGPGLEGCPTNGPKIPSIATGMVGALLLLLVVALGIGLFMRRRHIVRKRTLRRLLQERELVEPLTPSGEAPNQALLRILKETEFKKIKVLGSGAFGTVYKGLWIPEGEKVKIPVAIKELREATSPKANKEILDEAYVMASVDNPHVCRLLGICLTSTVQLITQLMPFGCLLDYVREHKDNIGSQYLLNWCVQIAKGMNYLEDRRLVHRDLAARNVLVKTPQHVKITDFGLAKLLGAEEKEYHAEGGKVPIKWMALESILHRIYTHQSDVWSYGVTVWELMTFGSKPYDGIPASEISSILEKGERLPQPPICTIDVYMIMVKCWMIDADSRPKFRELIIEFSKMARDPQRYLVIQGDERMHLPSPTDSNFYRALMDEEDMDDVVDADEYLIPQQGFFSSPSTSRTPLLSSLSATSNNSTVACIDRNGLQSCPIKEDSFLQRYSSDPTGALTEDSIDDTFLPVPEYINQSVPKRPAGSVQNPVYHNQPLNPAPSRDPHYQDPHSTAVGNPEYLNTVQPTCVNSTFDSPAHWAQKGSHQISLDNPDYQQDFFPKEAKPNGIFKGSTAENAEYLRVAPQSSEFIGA

Row | IC50 [1] [µM] | IC50 [2, 4] [µM] | IC50 [3] [µM] | IC50 [2, 5] [µM] | SMILES
1 | > 10 | > 10 | > 10 | – | Cc1nc2c(-c3cccc(N4CC[N+](C)([O-])CC4)c3)cnn2c(N)c1-c1ccc(F)cc1 [Example 106, 6-(4-Fluoro-phenyl)-5-methyl-3-[3-(4-methyl-4-oxy-piperazin-1-yl)-phenyl]-pyrazolo[1,5-a]pyrimidin-7-ylamine]
2 | > 10 | > 10 | > 10 | – | Cc1nc2c(-c3cccc([N+]4([O-])CC[N+](C)([O-])CC4)c3)cnn2c(N)c1-c1ccc(F)cc1 (stereo not shown) [Example 107, 6-(4-Fluoro-phenyl)-5-methyl-3-[3-(4-methyl-1,4-dioxy-piperazin-1-yl)-phenyl]-pyrazolo[1,5-a]pyrimidin-7-ylamine]
3 | > 10 | > 10 | 1 to 10 | – | Cc1nc2c(-c3cccc(N4CCC(N5CCCC5)CC4)c3)cnn2c(N)c1-c1cccc(Cl)c1 [Example 102, 6-(3-Chloro-phenyl)-5-methyl-3-[3-(4-pyrrolidin-1-yl-piperidin-1-yl)-phenyl]-pyrazolo[1,5-a]pyrimidin-7-ylamine]
4 | > 10 | > 10 | > 10 | – | COc1ccc(-c2cnn3c(N)c(-c4cccc(Cl)c4)c(CF)nc23)cc1OC [Example 92, 6-(3-Chloro-phenyl)-3-(3,4-dimethoxy-phenyl)-5-fluoromethyl-pyrazolo[1,5-a]pyrimidin-7-ylamine]
5 | > 10 | > 10 | > 10 | – | COc1ccc(-c2cnn3c(N)c(-c4ccc(F)c(Cl)c4)c(C)nc23)cc1 [Example 95, 6-(3-Chloro-4-fluoro-phenyl)-3-(4-methoxy-phenyl)-5-methyl-pyrazolo[1,5-a]pyrimidin-7-ylamine]
6 | 1 to 10 | > 10 | > 10 | – | COc1ccc(-c2cnn3c(N)c(-c4ccc(F)cc4)c(C)nc23)cc1 [Example 96, 6-(4-Fluoro-phenyl)-3-(4-methoxy-phenyl)-5-methyl-pyrazolo[1,5-a]pyrimidin-7-ylamine]

Further lines, the molecule ahead of its results:

Row | SMILES | IC50 [1] [µM] | IC50 [2, 4] [µM] | IC50 [3] [µM] | IC50 [2, 5] [µM]
7 | CN1CCN(c2cccc(-c3cnn4c(N)c(-c5cccc(Br)c5)cnc34)c2)CC1 [Example 86, 6-(3-Bromo-phenyl)-3-[3-(4-methyl-piperazin-1-yl)-phenyl]-pyrazolo[1,5-a]pyrimidin-7-ylamine] | > 10 | > 10 | 1 to 10 | –
8 | Cc1nc2c(-c3cccc(N4CCN(C)CC4)c3)cnn2c(N)c1-c1ccc(F)c(Cl)c1 [Example 82, 6-(3-Chloro-4-fluoro-phenyl)-5-methyl-3-[3-(4-methyl-piperazin-1-yl)-phenyl]pyrazolo[1,5-a]pyrimidin-7-ylamine] | > 10 | > 10 | > 10 | –
9 | Cc1nc2c(-c3ccc(N4CCN(C)CC4)cc3)cnn2c(N)c1-c1ccc(F)cc1 [Example 79, 6-(4-Fluoro-phenyl)-5-methyl-3-[4-(4-methyl-piperazin-1-yl)-phenyl]-pyrazolo[1,5-a]pyrimidin-7-ylamine] | 1 to 10 | > 10 | > 10 | –
10 | CN1CCN(c2cccc(-c3cnn4c(N)c(Cc5cccc(Br)c5)cnc34)c2)CC1 [Example 85, 6-(3-Bromo-benzyl)-3-[3-(4-methyl-piperazin-1-yl)-phenyl]pyrazolo[1,5-a]pyrimidin-7-ylamine] | > 10 | > 10 | > 10 | –
11 | Cc1nc2c(-c3cccc(N4CCN(C)CC4)c3)cnn2c(N)c1-c1ccc(F)cc1 [Example 80, 6-(4-Fluoro-phenyl)-5-methyl-3-[3-(4-methyl-piperazin-1-yl)-phenyl]-pyrazolo[1,5-a]pyrimidin-7-ylamine] | > 10 | > 10 | 1 to 10 | –
12 | COc1cc(N2CCN(C)CC2)ccc1-c1cnn2c(N)c(-c3cccc(O)c3)cnc12 [Example 76, 3-{7-Amino-3-[2-methoxy-4-(4-methyl-piperazin-1-yl)-phenyl]-pyrazolo[1,5-a]pyrimidin-6-yl}-phenol] | < 1 | > 10 | < 1 | –
13 | Cc1nc2c(-c3cccc(N4CCOCC4)c3)cnn2c(N)c1-c1cccc(Cl)c1 [Example 87, 6-(3-Chloro-phenyl)-5-methyl-3-(3-morpholin-4-yl-phenyl)-pyrazolo[1,5-a]pyrimidin-7-ylamine] | > 10 | > 10 | > 10 | –
14 | COc1cccc(-c2cnn3c(N)c(-c4cccc(O)c4)cnc23)c1 [Example 60, 3-[7-Amino-3-(3-methoxy-phenyl)-pyrazolo[1,5-a]pyrimidin-6-yl]-phenol] | – | – | – | < 10
15 | Nc1c(-c2cccc(O)c2)cnc2c(-c3cccnc3)cnn12 [Example 46, 3-[7-Amino-3-pyridin-3-yl-pyrazolo[1,5-a]pyrimidin-6-yl]-phenol] | – | – | – | < 10
16 | CN1CCN(c2cccc(-c3cnn4c(N)c(-c5ccccc5Cl)cnc34)c2)CC1 [Example 78, 6-(2-Chloro-phenyl)-3-[3-(4-methyl-piperazin-1-yl)-phenyl]-pyrazolo[1,5-a]pyrimidin-7-ylamine] | – | – | 1 to 10 | –
17 | CN1CCN(c2ccc(-c3cnn4c(N)c(-c5ccccc5Cl)cnc34)cc2)CC1 [Example 77, 6-(2-Chloro-phenyl)-3-[4-(4-methyl-piperazin-1-yl)-phenyl]-pyrazolo[1,5-a]pyrimidin-7-ylamine] | – | – | < 1 | –
